Results reported in BindingDB's records for doi:10.1016/S1074-5521(02)00240-5 (Nippon Roche Research Center, 2002).

Assays:
[1] = biological target: T1, Glycylpeptide N-tetradecanoyltransferase 1 (Homo sapiens, UniProt P30419); assay: Inhibition Assay
T1 sequence (P30419 whole entry): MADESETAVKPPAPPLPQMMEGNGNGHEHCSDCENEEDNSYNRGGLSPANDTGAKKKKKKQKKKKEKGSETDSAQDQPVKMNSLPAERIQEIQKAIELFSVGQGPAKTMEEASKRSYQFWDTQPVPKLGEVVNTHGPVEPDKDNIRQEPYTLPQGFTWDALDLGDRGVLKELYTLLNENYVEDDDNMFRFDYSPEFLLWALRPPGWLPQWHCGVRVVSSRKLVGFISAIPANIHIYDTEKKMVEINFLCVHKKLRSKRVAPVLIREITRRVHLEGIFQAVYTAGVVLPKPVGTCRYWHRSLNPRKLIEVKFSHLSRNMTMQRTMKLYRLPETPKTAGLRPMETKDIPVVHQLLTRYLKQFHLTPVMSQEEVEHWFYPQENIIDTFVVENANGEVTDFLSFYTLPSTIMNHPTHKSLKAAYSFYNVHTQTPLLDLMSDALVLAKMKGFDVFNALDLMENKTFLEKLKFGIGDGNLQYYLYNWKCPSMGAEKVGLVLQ

[2] = biological target: T2, Glycylpeptide N-tetradecanoyltransferase (Candida albicans (strain SC5314 / ATCC MYA-2876), UniProt P30418); assay: Inhibition Assay
T2 sequence (P30418 whole entry): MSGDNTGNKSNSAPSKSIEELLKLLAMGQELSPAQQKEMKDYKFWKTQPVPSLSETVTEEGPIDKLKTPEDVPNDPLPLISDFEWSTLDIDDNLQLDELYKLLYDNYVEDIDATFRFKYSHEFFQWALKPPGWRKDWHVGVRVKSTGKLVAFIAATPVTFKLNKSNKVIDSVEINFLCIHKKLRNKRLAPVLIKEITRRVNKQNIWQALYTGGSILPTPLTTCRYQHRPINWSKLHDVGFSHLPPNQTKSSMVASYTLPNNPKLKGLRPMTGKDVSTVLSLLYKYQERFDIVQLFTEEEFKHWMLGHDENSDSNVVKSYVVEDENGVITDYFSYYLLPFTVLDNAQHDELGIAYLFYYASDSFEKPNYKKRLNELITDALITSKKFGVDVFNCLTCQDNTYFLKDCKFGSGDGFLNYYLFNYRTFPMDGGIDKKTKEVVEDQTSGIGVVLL

| SMILES | IC50 [1] [µM] | IC50 [2] [µM] |
| --- | --- | --- |
| O=C(Nc1ccc(S(=O)(=O)NC2=NCCCCC2)cc1)C1COc2ccccc2O1 (stereo not drawn) [MLS000761278] | > 570 | 1.1 |
| COc1ccc(C(=O)NN=Cc2ccccc2C(=O)O)cc1OC [2-[(veratroylhydrazono)methyl]benzoic acid] |  | 0.83 |
